Where a name gives a salt, the structure may show the parent alone.
The molecules below were run against T1, human ME3 enzyme (Homo sapiens, UniProt Q16798) (assay: ME3 inhibition assay (diaphorase/resazurin coupled fluorescence)). Conditions: 10 μM compound concentration; read-out: Malic Enzyme 3 % inhibition (10 μM).
T1 sequence (Q16798 1-604): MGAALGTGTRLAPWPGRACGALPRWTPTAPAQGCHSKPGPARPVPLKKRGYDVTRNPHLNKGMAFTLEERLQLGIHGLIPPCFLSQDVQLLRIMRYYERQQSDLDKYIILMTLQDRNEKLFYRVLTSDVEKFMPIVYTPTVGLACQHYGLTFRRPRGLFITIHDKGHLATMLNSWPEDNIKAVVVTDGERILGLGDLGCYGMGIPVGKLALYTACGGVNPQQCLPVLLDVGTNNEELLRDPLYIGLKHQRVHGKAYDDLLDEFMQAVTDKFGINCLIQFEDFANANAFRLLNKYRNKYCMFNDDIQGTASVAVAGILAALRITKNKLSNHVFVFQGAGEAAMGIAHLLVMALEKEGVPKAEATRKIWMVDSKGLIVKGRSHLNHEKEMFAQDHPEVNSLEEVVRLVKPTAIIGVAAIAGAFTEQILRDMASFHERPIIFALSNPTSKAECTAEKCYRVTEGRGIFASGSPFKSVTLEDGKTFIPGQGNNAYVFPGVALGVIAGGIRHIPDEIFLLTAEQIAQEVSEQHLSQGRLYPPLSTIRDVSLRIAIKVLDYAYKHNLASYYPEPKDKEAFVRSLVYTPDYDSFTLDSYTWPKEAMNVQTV
Type: biochemical
Method: ME3 catalyzes the oxidative decarboxylation of malate to pyruvate with conversion of the co-factor β-NADP+ to NADPH. In the fluorescence assay, a coupled reaction is set up wherein an enzyme, Diaphorase, utilizes NADPH generated by ME3, to convert the dye resazurin to a fluorescent molecule resorufin.
The enzyme activity inhibition assay is set up in a 200 μL final reaction volume in a 96-well plate. As per the experimental design, 2 μL of the test compounds at 100× the desired concentration (10 μM) in DMSO were added to the respective wells with 178 μL of assay buffer (50 mM Tris-HCl pH 7.5, 10 mM MnCl2, 3 mM L-malate, 50 μM Resazurin and 0.025 mg/ml Diapharose). The 96-well plate was incubated on a plate shaker at room temperature for 15 minutes protected from light. The well contents were gently mixed by adding 10 μL of 20 nM human ME3 enzyme to the wells and the plate was incubated on a shaker at room temperature for 5 minutes protected from light. Suitable enzyme only and no enzyme controls were included in the experiment. The enzyme reaction was started by adding 10 μL of 1 mM D-NADP+. The reaction was gently mixed and the plate was initially left on a shaker at room temperature for ˜7 minutes protected from light. Later, the plate was incubated without shaking at room temperature for 3 hours. At the end of 3 hours, the fluorescence of the wells was measured at excitation 540 nm and emission 600 nm.

`O=C(Cc1ccc(F)cc1F)N1CCN(c2ccc(O)cn2)CC1` [I.91, 2-(2,4-Difluoro-phenyl)-1-[4-(5-hydroxy-pyridine-2-yl)-piperazin-1-yl]-ethanone] and `O=C(CCc1ccc(O)cc1)N1CCN(c2ccc(O)cn2)CC1` [I.100, 3-(4-Hydroxy-phenyl)-1-[4-(5-hydroxy-pyridin-2-yl)-piperazin-1-yl]-propan-1-one] cannot be ordered by inhibition at 10 µM: > 90% for the first, > 90% for the second.

`O=C(CSc1ccc([N+](=O)[O-])cn1)N1CCN(c2ccc(O)cn2)CC1` [I.97, 1-[4-(5-hydroxy-pyridin-2-yl)-piperazin-1-yl]-2-(5-nitro-pyridin-2-ylsulfanyl)-ethanone] and `O=C(CCc1ccccc1Br)N1CCN(c2ccc(O)cn2)CC1` [I.102, 3-(2-Bromo-phenyl)-1-[4-(5-hydroxy-pyridin-2-yl)-piperazin-1-yl]-propan-1-one] cannot be ordered by inhibition at 10 µM: > 90% for the first, > 90% for the second.

`O=C(CCC12CC3CC(CC(C3)C1)C2)N1CCN(c2ccc(O)cn2)CC1` [I.98, 3-(1-Adamantyl)-1-[4-(5-hydroxy-2-pyridyl)-piperazin-1-yl]propan-1-one] and `O=C(C1CC1)N1CCN(c2ccc(O)cn2)CC1` [I.119, Cyclopropyl-[4-(5-hydroxy-2-pyridyl)-piperazin-1-yl]methanone] cannot be ordered by inhibition at 10 µM: > 90% for the first, > 90% for the second.

`O=C(C(c1ccccc1)C1CCCCC1)N1CCN(c2ccc(O)cn2)CC1` (stereo not shown) [I.99, 2-Cyclo-hexyl-1-[4-(5-hydroxy-2-pyridyl)-piperazin-1-yl]-2-phenyl-ethanone] and `O=C(C(c1ccccc1)N1CCOCC1)N1CCN(c2ccc(O)cn2)CC1` (stereo not shown) [I.117, 1-[4-(5-hydroxy-2-pyridyl)piperazin-1-yl]-2-morpholino-2-phenyl-ethanone] cannot be ordered by inhibition at 10 µM: > 90% for the first, > 90% for the second.

`COc1ccc(CCC(=O)N2CCN(c3ccc(O)cn3)CC2)cc1` [I.101, 3-(4-Methoxy-phenyl)-1-[4-(5-hydroxy-pyridin-2-yl)-piperazin-1-yl]-propan-1-one hydrochloride] and `Cc1ccc(CCC(=O)N2CCN(c3ccc(O)cn3)CC2)cc1` [I.110, 1-[4-(5-Hydroxy-pyridin-2-yl)-piperazin-1-yl]-3-p-tolyl-propan-1-one] cannot be ordered by inhibition at 10 µM: > 90% for the first, > 90% for the second.

`O=C(CCc1ccc(Br)cc1)N1CCN(c2ccc(O)cn2)CC1` [I.103, 3-(4-Bromo-phenyl)-1-[4-(5-hydroxy-pyridin-2-yl)-piperazin-1-yl]-propan-1-one] and `CN(C)c1ccc(CCC(=O)N2CCN(c3ccc(O)cn3)CC2)cc1` [I.108, 3-(4-Dimethyl-aminophenyl)-[4-(5-hydroxy-pyridin-2-yl)-piperazin-1-yl]-propan-1-one] cannot be ordered by inhibition at 10 µM: > 90% for the first, > 90% for the second.

First: COC(=O)C1C2CCC(O2)C1C(=O)N1CCN(c2ccc(O)cn2)CC1 (stereo not shown) [I.104, 3-[4-(5-Hydroxy-pyridin-2-yl)-piperazine-1-carbonyl]-7-oxa-bicyclo-[2.2.1]heptane-2-carboxylic acid methyl ester]
Second: O=C(O)C1C2CCC(O2)C1C(=O)N1CCN(c2ccc(O)cn2)CC1 (stereo not shown) [I.105, 3-[4-(5-Hydroxy-pyridin-2-yl)-piperazine-1-carbonyl]-7-oxa-bicyclo-[2.2.1]heptane-2-carboxylic acid]
The inhibition at 10 µM of the first is lower: 70 to 89% for the first, > 90% for the second.

`O=C(C(=O)N1CCN(c2ccc(O)cn2)CC1)c1c[nH]c2ccccc12` [I.106, 1-[4-(5-Hydroxy-pyridin-2-yl)-piperazin-1-yl]-2-(1H-indol-3-yl)-ethane-1,2-dione] and `O=C(O)c1ccccc1C(=O)N1CCN(c2ccc(O)cn2)CC1` [I.111, 2-[4-(5-Hydroxy-pyridin-2-yl)-piperazine-1-carbonyl]-benzoic acid] cannot be ordered by inhibition at 10 µM: > 90% for the first, > 90% for the second.

`COc1ccccc1CCC(=O)N1CCN(c2ccc(O)cn2)CC1` [I.109, 1-[4-(5-Hydroxy-pyridin-2-yl)-piperazin-1-yl]-3-(2-methoxy-phenyl)-propan-1-one] and `COCCOc1ccc(CCC(=O)N2CCN(c3ccc(O)cn3)CC2)cc1` [I.114, 1-[4-(5-Hydroxy-pyridin-2-yl)-piperazin-1-yl]-3-[4-(2-methoxy-ethoxy)-phenyl]-propan-1-one dihydro-chloride] cannot be ordered by inhibition at 10 µM: > 90% for the first, > 90% for the second.

`O=C(CCC(c1ccccc1)c1ccccc1)N1CCN(c2ccc(O)cn2)CC1` [I.112, 1-[4-(5-Hydroxy-2-pyridyl)-piperazin-1-yl]-4,4-diphenyl-butan-1-one] and `O=C(c1cccc(-c2cccc3[nH]ccc23)c1)N1CCN(c2ccc(O)cn2)CC1` [I.113, [4-(5-hydroxypyridin-2-yl)-piperazin-1-yl]-[3-(1H-indol-4-yl)phenyl]methanone] cannot be ordered by inhibition at 10 µM: > 90% for the first, > 90% for the second.

`O=C(C1CCCCC1)N1CCN(c2ccc(O)cn2)CC1` [I.118, Cyclohexyl-[4-(5-hydroxy-2-pyridyl)-piperazin-1-yl]methanone] and `O=C(/C=C/C1CCCCC1)N1CCN(c2ccc(O)cn2)CC1` [I.120, (E)-3-Cyclo-hexyl-1-[4-(5-hydroxy-2-pyridyl)-piperazin-1-yl]prop-2-en-1-one] cannot be ordered by inhibition at 10 µM: > 90% for the first, > 90% for the second.

— patent US11225480B2, “Malic enzyme inhibitors” (SUN PHARMA ADVANCED RESEARCH COMPANY LTD, priority 2019, dated 2022)
